Bounds are passed on as bounds.

Regarding `Fc1ccc2c(c1)COB2c1ccccc1` [9b, 1,3-Dihydro-5-fluoro-1-phenyl-2,1-benzoxaborole], the melting point was 90 to 99 °C.

On to `COc1ccc(S(=O)(=O)c2ccc3c(c2)B(O)OC3)cc1` [C33, 6-(4-methoxyphenylsulfonyl)benzo[c][1,2]oxaborol-1(3H)-ol], for which the melting point lay within 180 to 192 °C.

The compound `O=C(COc1ccc2c(c1)COB2O)N1CCCCC1` [C46, 2-(1-hydroxy-1,3-dihydrobenzo[c][1,2]oxaborol-5-yloxy)-1-(pieridin-1-yl)ethanone] registered a melting point of 158 to 163 °C.

`Fc1ccc2c(c1)COB2C=Cc1ccccc1` [10b, 1,3-Dihydro-5-fluoro-1-styryl-2,1-benzoxaborole] gave a melting point of 84 to 86 °C.

`OB1OCc2ccc(F)cc21` [C13, 6-fluorobenzo[c][1,2]oxaborol-1(3H)-ol]: the melting point lay within 110 to 117.5 °C.

In turn, `COc1ccc(Sc2ccc3c(c2)B(O)OC3)cc1` [C32, 6-(4-methoxyphenylthio)benzo[c][1,2]oxaborol-1(3H)-ol] came in with a melting point of 95 to 100 °C.

`Fc1ccc2c(c1)COB2c1ccsc1` [compound 13, 1,3-Dihydro-5-fluoro-1-(thiophen-3-yl)-2,1-benzoxaborole] came in with a melting point of 33 to 35 °C.

`COc1ccc2c(c1)c(SCCC#N)cn2-c1ccc2c(c1)B(O)OC2` [C73, 3-(1-(1-hydroxy-1,3-dihydrobenzo[c][1,2]oxaborol-6-yl)-5-methoxy-1H-indol-3-ylthio)propanenitrile] had a melting point of 149 to 154 °C.

`Cc1ccc(B2OCc3cc(F)ccc32)cc1` [9j, 1,3-Dihydro-5-fluoro-1-(4-methylphenyl)-2,1-benzoxaborole] displayed a melting point of 48 to 49 °C.

The compound `CN(c1ccc2c(c1)COB2O)S(=O)(=O)c1ccccc1` [C30, N-(1-hydroxy-1,3-dihydrobenzo[c][1,2]oxaborol-5-yl)-N-methylbenzenesulfonamide] displayed a melting point of 85 to 95 °C.

`OB1OCc2ccc(Oc3ccc(C(F)(F)F)cc3)cc21` [C87, 6-(4-(trifluoromethyl)phenoxy)benzo[c][1,2]oxaborol-1(3H)-ol] yielded a melting point of 98 to 105 °C.

`Nc1cc2c(cc1F)COB2O` [C70, 6-amino-5-fluorobenzo[c][1,2]oxaborol-1(3H)-ol] registered a melting point of 142 to 145 °C.

Turning to `OCc1cccc2c1B(O)OC2` [C64, 7-(hydroxymethyl)benzo[c][1,2]oxaborol-1(3H)-ol], the melting point lay within 241 to 250 °C.

As for `Fc1cccc(B2OCc3cc(F)ccc32)c1` [9g, 1,3-Dihydro-5-fluoro-1-(3-fluorophenyl)-2,1-benzoxaborole], the melting point fell in the range of 80 to 82 °C.

`Fc1ccc2c(c1)COB2c1cccc(Cl)c1` [9f, 1-(3-Chlorophenyl)-1,3-dihydro-5-fluoro-2,1-benzoxaborole]: the melting point is 112 to 114 °C.

The compound `N#CCCSc1cn(-c2ccc3c(c2)B(O)OC3)c2ccccc12` [C67, 3-(1-(1-hydroxy-1,3-dihydrobenzo[c][1,2]oxaborol-6-yl)-1H-indol-3-ylthio)propanenitrile] gave a melting point of 135 to 141 °C.

Compound `O=C(COc1ccc2c(c1)COB2O)N1CCN(c2ncccn2)CC1` [C47, 2-(1-hydroxy-1,3-dihydrobenzo[c][1,2]oxaborol-5-yloxy)-1-(4-(pyrimidin-2-yl)piperazin-1-yl)ethanone] displayed a melting point of 190 to 195 °C.

Consider `[O-][S+](c1ccc(Cl)cc1)c1ccc2c(c1)B(O)OC2` (centres unmarked) [C89, 6-(4-chlorophenylsulfinyl)benzo[c][1,2]oxaborol-1(3H)-ol], for which the melting point lay within 154 to 161 °C.

For `COc1ccc2c(ccn2-c2ccc3c(c2)B(O)OC3)c1` [C68, 6-(5-methoxy-1H-indol-1-yl)benzo[c][1,2]oxaborol-1(3H)-ol], the melting point lay within 120 to 124 °C.

The compound `OB1OCc2ccc(Sc3ccc(C(F)(F)F)cc3)cc21` [C92, 6-(4-(trifluoromethyl)phenylthio)benzo[c][1,2]oxaborol-1(3H)-ol] gave a melting point of 111 to 113 °C.

The compound `O=S(=O)(c1ccc(Cl)cc1)c1ccc2c(c1)B(O)OC2` [C90, 6-(4-chlorophenylsulfonyl)benzo[c][1,2]oxaborol-1(3H)-ol] gave a melting point of 157 to 163 °C.

Take `Fc1ccc(B2OCc3cc(F)ccc32)cc1` [9h, 1,3-Dihydro-5-fluoro-1-(4-fluorophenyl)-2,1-benzoxaborole]: the melting point is 75 to 77 °C.

The compound `O=S(=O)(c1ccccc1)N(c1ccc2c(c1)COB2O)S(=O)(=O)c1ccccc1` [C91, N-(1-hydroxy-1,3-dihydrobenzo[c][1,2]oxaborol-5-yl)-N-(phenylsulfonyl)benzenesulfonamide] displayed a melting point of 142 to 152 °C.

Regarding `COc1ccc(Oc2ccc3c(c2)B(O)OC3)cc1` [C31, 6-(4-methoxyphenoxy)benzo[c][1,2]oxaborol-1(3H)-ol], the melting point fell in the range of 126 to 129 °C.

For the compound `CSc1ccc(Sc2ccc3c(c2)B(O)OC3)cc1` [C94, 6-(4-(methylthio)phenylthio)benzo[c][1,2]oxaborol-1(3H)-ol], the melting point lay within 117 to 120 °C.

Consider `OB1OCc2ccc(Sc3ccc(Cl)cc3)cc21` [C88, 6-(4-chlorophenylthio)benzo[c][1,2]oxaborol-1(3H)-ol], for which the melting point lay within 157 to 161 °C.

`OB1OCc2cc(F)c(NCc3ccccc3)cc21` [C71, 6-(benzylamino)-5-fluorobenzo[c][1,2]oxaborol-1(3H)-ol] had a melting point of 159 to 164 °C.

Compound `OB1OCc2ccc(Sc3cccs3)cc21` [C43, 6-(thiophen-2-ylthio)benzo[c][1,2]oxaborol-1(3H)-ol] displayed a melting point of 99 to 104 °C.

`Fc1ccc2c(c1)COB2c1cccnc1` [compound 15, 3-(1,3-Dihydro-5-fluoro-2,1-benzoxaborol-1-yl)pyridine] returned a melting point of 210 to 212 °C.

The compound `OB1OCc2cccc(F)c21` [C86, 7-fluorobenzo[c][1,2]oxaborol-1(3H)-ol] had a melting point of 120 to 124 °C.

`OB1OCc2ccc3ccccc3c21` [C11, naphtho[1,2-c][1,2]oxaborol-1(3H)-ol] registered a melting point of 139 to 143 °C.

`O=S(=O)(Nc1ccc2c(c1)B(O)OC2)c1ccccc1` [C62, N-(1-hydroxy-1,3-dihydrobenzo[c][1,2]oxaborol-6-yl)benzenesulfonamide]: the melting point is 175 to 184 °C.

Regarding `Cc1cccc2c1B(O)OC2` [C65, 7-methylbenzo[c][1,2]oxaborol-1(3H)-ol], the melting point fell in the range of 107 to 111 °C.

Take `OB1OCc2ccc(Oc3ccccc3)cc21` [C21, 6-phenoxybenzo[c][1,2]oxaborol-1(3H)-ol]: the melting point was in the range of 95 to 99 °C.

Consider `OB1OCc2ccc(NCc3ccccc3)cc21` [C77, 6-(benzylamino)benzo[c][1,2]oxaborol-1(3H)-ol], for which the melting point was 126 to 133 °C.

For `OB1OCc2ccc(N3CCOCC3)cc21` [C56, 6-morpholinobenzo[c][1,2]oxaborol-1(3H)-ol], the melting point lay in the range of 128 to 132 °C.

Compound `O=[N+]([O-])c1cc2c(cc1F)COB2O` [C58, 5-fluoro-6-nitrobenzo[c][1,2]oxaborol-1(3H)-ol] had a melting point of 162 to 167 °C.

In turn, `N#CCCSc1cn(-c2ccc3c(c2)B(O)OC3)c2ccc(Cl)cc12` [C76, 3-(5-chloro-1-(1-hydroxy-1,3-dihydrobenzo[c][1,2]oxaborol-6-yl)-1H-indol-3-ylthio)propanenitrile] displayed a melting point of more than 225 °C.

`COc1ccc2c(c1)c(Sc1ccccc1)cn2-c1ccc2c(c1)B(O)OC2` [C72, 6-(5-methoxy-3-(phenylthio)-1H-indol-1-yl)benzo[c][1,2]oxaborol-1(3H)-ol] had a melting point of 135 to 141 °C.

Compound `OB1OCc2ccc(Oc3ccc(OC(F)(F)F)cc3)cc21` [C29, 6-(4-(trifluoromethoxy)phenoxy)benzo[c][1,2]oxaborol-1(3H)-ol] displayed a melting point of 97 to 101 °C.

Compound `Cc1ccc2c(c1)COB2O` [C8, 5-methylbenzo[c][1,2]oxaborol-1(3H)-ol] came in with a melting point of 124 to 128 °C.

Take `O=C(Nc1ccc2c(c1)B(O)OC2)c1ccccc1` [C52, N-(1-hydroxy-1,3-dihydrobenzo[c][1,2]oxaborol-6-yl)benzamide]: the melting point was 186 to 193 °C.

Compound `Cc1ccc(Sc2ccc3c(c2)B(O)OC3)cc1` [C95, 6-(p-tolylthio)benzo[c][1,2]oxaborol-1(3H)-ol] had a melting point of 139 to 144 °C.

With `N#Cc1cccc(COc2ccc3c(c2)COB3O)c1` [C96, 3-((1-hydroxy-1,3-dihydrobenzo[c][1,2]oxaborol-5-yloxy)methyl)benzonitrile], the melting point was in the range of 147 to 150 °C.

Compound `OB1OCc2ccc(Sc3ccc(F)cc3)cc21` [C44, 6-(4-fluorophenylthio)benzo[c][1,2]oxaborol-1(3H)-ol] had a melting point of 135 to 138 °C.

Turning to `CCCCC(=O)c1cccc(COc2ccc3c(c2)COB3O)c1` [C45, 1-(3-((1-hydroxy-1,3-dihydrobenzo[c][1,2]oxaborol-5-yloxy)methyl)phenyl)pentan-1-one], the melting point lay within 96 to 98 °C.

As to `OB1OCc2ccc(N3CCN(c4ccccn4)CC3)cc21` [C48, 6-(4-(pyridin-2-yl)piperazin-1-yl)benzo[c][1,2]oxaborol-1(3H)-ol], the melting point lay in the range of 135 to 138 °C.

As for `Fc1ccc(B2OCc3ccccc32)cc1` [9e, 1,3-Dihydro-1-(4-fluorophenyl)-2,1-benzoxaborole], the melting point was in the range of 53 to 55 °C.

`OB1OCc2ccc(-n3cc(Sc4ccccc4)c4cc(Cl)ccc43)cc21` [C80, 6-(5-chloro-3-(phenylthio)-1H-indol-1-yl)benzo[c][1,2]oxaborol-1(3H)-ol] gave a melting point of 145 to 151 °C.

On to `C(=Cc1ccccc1)B1OCc2ccccc21` [10a, 1,3-Dihydro-1-styryl-2,1-benzoxaborole], for which the melting point fell in the range of 57 to 59 °C.

Compound `CN(C)c1ccc2c(c1)B(O)OC2` [C51, 6-(dimethylamino)benzo[c][1,2]oxaborol-1(3H)-ol] displayed a melting point of 120 to 123 °C.

With `OB1OCc2ccc(-n3ccc4ccccc43)cc21` [C55, 6-(1H-indol-1-yl)benzo[c][1,2]oxaborol-1(3H)-ol], the melting point fell in the range of 135 to 140 °C.

For `OCc1cc2c(cc1Br)COB2O` [C59], the melting point is more than 257 °C.

The melting point is the temperature of the solid-liquid transition.

The values above are taken from patent US20070286822A1, “Compounds for the Treatment of Periodontal Disease” (ANACOR PHARMACEUTICALS INC., priority 2006, published 2007).
